# PMC10816934, “Targeting the Melanocortin 1 Receptor in Melanoma: Biological Activity of α-MSH–Peptide Conjugates” (International Journal of Molecular Sciences, 2024)
# Square brackets hold non-standard residues; d marks the D form. Peptide text beside a SMILES is read from it. * marks the point of attachment. Daunorubicin(13-NOCH2CO) = COc1cccc2c1C(=O)c1c(O)c3c(c(O)c1C2=O)C[C@@](O)(C(C)=NOCC(=O)*)C[C@@H]3O[C@H]1C[C@H](N)[C@H](O)[C@H](C)O1; Nle = CCCC[C@H](N)C(=O)O
# What was measured:
# [1] = test system: B16 murine melanoma cell line; assay: In vitro antiproliferative activity, MTT assay; assay type: cell-based, mouse; settings: ratio of IC50 values of free Dau and conjugate
# Excerpt: (§1) The following cell cultures were used for the biological evaluation of the synthetic melanoma-specific peptide–drug (Dau–α-MSH) conjugates: A2058 (human skin melanoma, CVCL_1059), M24 (human metastatic skin melanoma, CVCL_D032), OCM-1 (human ocular choroidal melanoma-1, CVCL_6934), OCM-3 (human ocular choroidal melanoma-3, CVCL_6937), WM983A (human metastatic skin melanoma, CVCL_6808), WM983B (human metastatic skin melanoma CVCL_6809), SK-MEL-202 (human skin melanoma, ATCC HTB-68) and B16 (mouse melanoma, ATCC: CRL-6475). Cells were maintained in RPMI-1640 (Lonza, Basel, Switzerland), supplied with 10% FBS (fetal bovine serum; BioSera, Nuaille, France), L-glutamine, and 1% penicillin–streptomycin (from 10 000 units penicillin and 10 mg streptomycin/mL, Gibco, Dublin, Ireland) at 37 °C in a 5% CO2 atmosphere. No mycoplasma contamination was detected in the cell cultures.
# (§2) The in vitro cytostatic effect of Dau–α-MSH conjugates was determined by two different assays. The full-length Dau–α-MSH conjugates were investigated by MTT assay using human and murine melanoma cell cultures. For determination of the cytostatic effect of these conjugates, the cells were treated with the compounds at 0.8–100 μM concentration range dissolved in the corresponding serum-free media for 24 h. After incubation, the treating solutions were removed, the cells were washed two times with serum-free medium and cultured for 48 h in the appropriate serum-containing cell culture medium. On the fourth day, the MTT assay was carried out to determine the IC50 values of the compounds. IC50 is the concentration that inhibits cell proliferation by 50%. Nonlinear regression analysis was performed with Prism 6 software (GraphPad, La Jolla, CA, USA) to generate sigmoidal dose–response curves, from which the 50% inhibitory concentration (IC50) values of the compounds were calculated and presented as micromolar (µM) units. The experiments were done in triplicate, and each experiment was repeated twice.
# [2] = test system: A2058 human melanoma cell line; assay: In vitro antiproliferative activity, MTT assay; assay type: cell-based; settings: ratio of IC50 values of free Dau and conjugate
# Excerpt: as §1, §2
# [3] = test system: M24 human melanoma cell line; assay: In vitro antiproliferative activity, MTT assay; assay type: cell-based; settings: ratio of IC50 values of free Dau and conjugate
# Excerpt: as §1, §2
# [4] = test system: WM983B human melanoma cell line; assay: In vitro antiproliferative activity, MTT assay; assay type: cell-based; settings: ratio of IC50 values of free Dau and conjugate
# Excerpt: as §1, §2
# A2058 cells = assay: In vitro cytostatic effect, PrestoBlue assay; assay type: cell-based, human
# Excerpt: as §1
# (§3) The in vitro cytostatic effect of the Dau–α-MSH conjugate with optimized sequence (Conj4) was investigated and compared with Conj2 by PrestoBlue assay using human melanoma cell cultures with different origins. For determination of the cytostatic effect of the conjugates, the cells were treated with the compounds at 0.003–200 μM concentration range dissolved in the corresponding serum-free medium for 72 h. After the treatment, the PrestoBlue assay (purchased from Invitrogen (Waltham, MA, USA) was carried out to determine the IC50 values of the compounds. Based on the IC50 values, we also determined the targeting index (TI) of the conjugates using the following equation [58]: TI=IC50neg/IC50posconjugate/IC50neg/IC50posfree drug
# OCM-1 cells = assay: In vitro cytostatic effect, PrestoBlue assay; assay type: cell-based, human
# Excerpt: as §1, §3
# OCM-3 cells = assay: In vitro cytostatic effect, PrestoBlue assay; assay type: cell-based, human
# Excerpt: as §1, §3
# SK-MEL-202 cells = assay: In vitro cytostatic effect, PrestoBlue assay; assay type: cell-based, human
# Excerpt: as §1, §3
# WM983A cells = assay: In vitro cytostatic effect, PrestoBlue assay; assay type: cell-based, human
# Excerpt: as §1, §3
# WM983B cells = assay: In vitro cytostatic effect, PrestoBlue assay; assay type: cell-based, human
# Excerpt: as §1, §3
# healthy male BALB/c mice = assay: In vivo acute toxicity study on healthy mice; parameters: species or system mouse
# Description: To determine toxicity of conjugates on healthy animals, in vivo acute toxicity study of Dau, Conj2 and Conj4 was performed. In the first experiment, adult BALB/c male mice (29–31 g) were exposed by one injection of the conjugate at the start of experiment, by intraperitoneal (i.p.) administration. A dose of 25 mg Dau content/kg was used, in a volume of 0.1 mL per mice (3 mice per condition). In the second in vivo experiment, NOD-SCID mice were exposed by four injections of the conjugates at the start of experiment, by intraperitoneal (i.p.) administration. Doses of 5, 10 and 15 mg Dau content/kg were used for the toxicity assay, at a volume of 0.1 mL per mice (3 mice per condition). The animals were kept under the conditions as described above.
# [5] = test system: OCM-1 human uveal melanoma tumor in male NOD-SCID mice; assay: In vivo tumor growth inhibition, OCM-1 xenograft; parameters: species or system mouse; settings: for Normalized liver weight, value line 1 / Normalized liver weight, value line 2 / Normalized liver weight, value line 3 / Normalized liver weight, value line 4 / Normalized liver weight, value line 5 / Normalized liver weight, value line 6 / Normalized liver weight, value line 7 / Normalized liver weight, line printed as "ave": Table S2; for Normalized liver weight, value line 1 / Normalized liver weight, value line 2 / Normalized liver weight, value line 3 / Normalized liver weight, value line 4 / Normalized liver weight, value line 5 / Normalized liver weight, value line 6 / Normalized liver weight, value line 7: single animal; for Normalized liver weight, line printed as "ave": value line 8
# Description: In the next experiment, the murine xenograft melanoma model establishment studies were performed using 8–12-week-old male NOD-SCID mice. For selection of the most suitable tumor model, three cell lines were then inoculated subcutaneously, OCM-1, SK-MEL-202, and WM983A. Cells were injected in a 0.1 mL RPMI-1640 basic medium in a concentration of 1.5·× 10^6 cells/mL, and the tumor growth and weight of mice were monitored 2–3 times per week. Subsequently, the antitumor effects of the Dau–α-MSH conjugates were determined in a mouse xenograft melanoma model selected as described above. Once the tumor volume reached 60 mm^3, mice were randomized and assigned to different groups for each treatment: 0.9% saline as a control, free daunomycin, Conj2 and Conj4. Treatments were injected intraperitoneally every fifth day, three times in total (daunomycin dosage of 5 mg/kg in case of Conj2, 10 mg/kg for Conj4, respectively, which was determined based on the toxicity tests, and 1 mg/kg were used for free drug–MTD). The weight and tumor size of mice were monitored during the whole experiment. On Day 33, mice were euthanized, and the primary tumor, heart, lung, liver, and spleen were harvested and stored in 4% formalin (Molar Chemicals, Halásztelek, Hungary). Liver weight was measured for the calculation of the toxicity of conjugates and daunomycin.
# [6] = test system: subcutaneous B16 murine melanoma in C57BL/6 male mice; assay: In vivo antitumor effect, subcutaneous B16 melanoma allograft; settings: conjugates 10 mg Dau content/kg
# Description: In the first experiment, B16 murine melanoma cells were subcutaneously (s.c.) injected into side of the latero-abdominal region of 35 C57BL/6 male mice (20–28 g), which murine strain is syngeneic for the B16 melanoma tumor cell line [59, 60], 6.5 ×·10^5 cells in a volume of 200 µL M199 medium was inoculated per animal. Mice were randomized in a stratified procedure considering two main factors. The primary factor was to obtain groups with the most equal tumor sizes, the secondary factor was to have groups in which the weight of mice are the most equal. The treatment started 9 days after cell inoculation when average tumor volume was 30 mm^3. Compounds were dissolved in saline solution (Teva, Debrecen, Hungary), and administered via i.p. injection in a volume of 0.1 mL per 10 g of bodyweight. […] Animal weight and tumor volumes were measured initially when the treatment started and at periodic intervals following treatment. A digital caliper was used to measure the longest (a) and the shortest diameter (b) of a given tumor. The tumor volume was calculated using the formula V = ab^2 × π/6, whereby a and b represent the measured parameters (length and width). Termination of the experiment was 20 days after cell inoculation, i.e., 12 days after treatment started, since the average volume of the tumors in the control group reached over 1800 mm^3. The mice from all groups were sacrificed by cervical dislocation after which their tumors were harvested and weighed for antitumor effect assessment. Antitumor effect of treatments was evaluated measuring the tumor volume and calculating the percentage of how much the tumor volume grew in comparison to the starting tumor volume which was set arbitrarily for all tumors as 100% at the start of treatment.
# [7] = change compared to control group, minus = inhibition, free Dau 1 mg/kg
smiles,measurement,setting,value
"CCCC[C@H](NC(=O)[C@H](CO)NC(=O)[C@H](Cc1ccc(O)cc1)NC(=O)[C@H](CO)NC(C)=O)C(=O)N[C@@H](CCC(=O)O)C(=O)N[C@@H](Cc1c[nH]cn1)C(=O)N[C@@H](Cc1ccccc1)C(=O)N[C@@H](CCCNC(=N)N)C(=O)N[C@@H](Cc1c[nH]c2ccccc12)C(=O)NCC(=O)N[C@@H](CCCCNC(=O)CON=C(C)[C@]1(O)Cc2c(O)c3c(c(O)c2[C@@H](O[C@H]2C[C@H](N)[C@H](O)[C@H](C)O2)C1)C(=O)c1c(OC)cccc1C3=O)C(=O)N1CCC[C@H]1C(=O)N[C@H](C(N)=O)C(C)C [Conj2, Ac-SYSNleEHFRWGK(Dau=Aoa)PV-NH2]",Relative Potency,[1],0.0093
same,Relative Potency,[2],0.0125
same,Relative Potency,[3],0.0103
same,Relative Potency,[4],0.0063
same,Targeting Index (TI),"A2058 cells; A2058 (reference cell line), TI = (IC50neg/IC50pos conjugate)/(IC50neg/IC50pos free drug)",1.00
same,Targeting Index (TI),"OCM-1 cells; OCM-1 versus A2058, TI = (IC50neg/IC50pos conjugate)/(IC50neg/IC50pos free drug)",2.30
same,Targeting Index (TI),"OCM-3 cells; OCM-3 versus A2058, TI = (IC50neg/IC50pos conjugate)/(IC50neg/IC50pos free drug)",1.85
same,Targeting Index (TI),"SK-MEL-202 cells; SK-MEL-202 versus A2058, TI = (IC50neg/IC50pos conjugate)/(IC50neg/IC50pos free drug)",2.74
same,Targeting Index (TI),"WM983A cells; WM983A versus A2058, TI = (IC50neg/IC50pos conjugate)/(IC50neg/IC50pos free drug)",1.90
same,Targeting Index (TI),"WM983B cells; WM983B versus A2058, TI = (IC50neg/IC50pos conjugate)/(IC50neg/IC50pos free drug)",2.61
same,"Changes in bodyweight, liver mass, general appearance and behavior","healthy male BALB/c mice; after 14 days, one i.p. injection 25 mg Dau content/kg, BALB/c male mice",no significant changes
same,Acute toxicity,"healthy male BALB/c mice; one i.p. injection, up to 25 mg Dau content/kg, healthy BALB/c male mice, 3 mice, 14 days",does not show acute toxicity
same,Growth of the tumor reduced to % of the control size,"[5]; Day 33, 5 mg/kg Dau content i.p., three treatments (days 15, 19, 23), p: 0.0056",55%
same,"Normalized liver weight, value line 1",[5],3.77%
same,"Normalized liver weight, value line 2",[5],5.10%
same,"Normalized liver weight, value line 3",[5],4.35%
same,"Normalized liver weight, value line 4",[5],4.14%
same,"Normalized liver weight, value line 5",[5],4.73%
same,"Normalized liver weight, value line 6",[5],4.15%
same,"Normalized liver weight, value line 7",[5],4.90%
same,"Normalized liver weight, line printed as ""ave""",[5],4.55%
same,"Tumor growth inhibition based on tumor weight, in comparison to the control group","[6]; after termination (day 20), free Dau 1 mg/kg i.p.",38.6%
same,Tumor weigh in % (Table S1),"[6]; change compared to control group, minus = decrease, free Dau 1 mg/kg",-38.6%
same,Tumor volume in % (Table S1),[6]; [7],-75.4%
same,Tumor volume in mm3 (Table S1),[6]; [7],-37.8%
"CCCC[C@H](NC(C)=O)C(=O)N[C@@H](CCC(=O)O)C(=O)N[C@@H](Cc1c[nH]cn1)C(=O)N[C@H](Cc1ccccc1)C(=O)N[C@@H](CCCNC(=N)N)C(=O)N[C@@H](Cc1c[nH]c2ccccc12)C(=O)NCC(=O)N[C@@H](CCCCNC(=O)CON=C(C)[C@]1(O)Cc2c(O)c3c(c(O)c2[C@@H](O[C@H]2C[C@H](N)[C@H](O)[C@H](C)O2)C1)C(=O)c1c(OC)cccc1C3=O)C(N)=O [Conj4, Ac-NleEHfRWGK(Dau=Aoa)-NH2] (Ac-[Nle]EH[dF]RWGK(Daunorubicin(13-NOCH2CO))-NH2)",IC50,"A2058 cells; A2058, PrestoBlue, 0.003–200 μM in serum-free medium 72 h, mean ± SEM of three independent experiments",7.15 ± 0.07 µM
same,IC50,"OCM-1 cells; OCM-1, PrestoBlue, 0.003–200 μM in serum-free medium 72 h, mean ± SEM of three independent experiments",29.68 ± 0.06 µM
same,IC50,"OCM-3 cells; OCM-3, PrestoBlue, 0.003–200 μM in serum-free medium 72 h, mean ± SEM of three independent experiments",25.47 ± 0.08 µM
same,IC50,"SK-MEL-202 cells; SK-MEL-202, PrestoBlue, 0.003–200 μM in serum-free medium 72 h, mean ± SEM of three independent experiments",2.06 ± 0.1 µM
same,IC50,"WM983A cells; WM983A, PrestoBlue, 0.003–200 μM in serum-free medium 72 h, mean ± SEM of three independent experiments",13.5 ± 0.06 µM
same,IC50,"WM983B cells; WM983B, PrestoBlue, 0.003–200 μM in serum-free medium 72 h, mean ± SEM of three independent experiments",10.18 ± 0.06 µM
same,"Normalized liver weight, value line 1",[5],5.23%
same,"Normalized liver weight, value line 2",[5],4.34%
same,"Normalized liver weight, value line 3",[5],4.47%
same,"Normalized liver weight, value line 4",[5],4.50%
same,"Normalized liver weight, value line 5",[5],5.35%
same,"Normalized liver weight, value line 6",[5],4.70%
same,"Normalized liver weight, value line 7",[5],5.11%
same,"Normalized liver weight, line printed as ""ave""",[5],4.62%
